Assays:
Assay type in all cases: cell-based
[1] = tested on: H446 small-cell lung cancer cells; test: 3H thymidine incorporation proliferation assay, H446; conditions: Homo sapiens, NCI-H446, 72 h
Method: (§1) The human tumor cell lines were obtained from the American Type Culture Collection (ATCC), P.O. Box 1549, Manassas, Va. 20108, USA, and cultured according to instructions from ATCC. Cells were seeded at 1.0×10^4 cells/well in 96-well plates. […] Plates were allowed to incubate for 72 h. The plates were pulsed with 1.0 μCi of ^3H-thymidine per well for the last 24 hours of the total incubation period, harvested, and read on a Top Count Scintillation Counter (Packard Instruments, Meriden, Conn.). The EC50 values—the ADC concentration at which cell proliferation was reduced by 50%—were determined using PRISM™ software, version 4.0 (GraphPad Software, La Jolla, Calif., USA).

[2] = tested on: HuH7D12 hepatocellular carcinoma cell line; test: 3H thymidine incorporation proliferation assay, HuH7D12; conditions: Homo sapiens, Huh-7D12; HuH7D12, Table 1
Method: as §1
(§2) The EC50 so values, along with those against HepG2 and HuH7D12 hepatocellular carcinoma cell lines, are shown in Table 1, plus data for the drug alone (formula (II)). […] That is, release of the drug from the conjugate is efficient.

[3] = tested on: Hep3B hepatocellular carcinoma cells; test: 3H thymidine incorporation proliferation assay, Hep3B; conditions: Homo sapiens, 72 h
Method: as §1

[4] = tested on: HepG2 hepatocellular carcinoma cell line; test: 3H thymidine incorporation proliferation assay, HepG2; conditions: Homo sapiens; HepG2, Table 1
Method: as §1, §2

`CCCN(C(=O)[C@@H](NC(=O)[C@H]1CCCCN1C)[C@@H](C)CC)[C@H](C[C@@H](OC(C)=O)c1nc(C(=O)N[C@@H](Cc2ccc(N)cc2)C[C@H](C)C(=O)O)cs1)C(C)C` [Unconjugated Drug (II)] showed an EC50 [1] of 0.2 nM, an EC50 [2] of 0.2 nM and an EC50 [3] of 0.2 nM. For the same compound, the EC50 [4] was 0.3 nM.
